Experimental data reported in the NIST ThermoML archive (doi:10.1016/j.jct.2018.12.028).
Numbers after ± are expanded uncertainties.

Experiment: wn = mass fraction of the nth substance listed
Conditions: 101.3 kPa, Liquid; for viscosity: Falling or rolling sphere viscometry; for mass density: Vibrating tube method

COCCO [2-methoxyethan-1-ol] + NCCO
Conditions	mass density [kg/m3]	viscosity [mPa·s]
293.15 K, w2 = 0	964.7 ± 2	1.692 ± 0.071
293.15 K, w2 = 0.1	971.8 ± 2	2.321 ± 0.097
293.15 K, w2 = 0.3	984.5 ± 2	4.371 ± 0.18
293.15 K, w2 = 0.5	995.6 ± 2	7.952 ± 0.33
293.15 K, w2 = 0.7	1005.1 ± 2	13 ± 0.54
293.15 K, w2 = 0.898	1013.4 ± 2	20.5 ± 0.87
298.15 K, w2 = 0	960.1 ± 2	1.527 ± 0.064
298.15 K, w2 = 0.1	967.3 ± 2	2.065 ± 0.086
298.15 K, w2 = 0.3	980.2 ± 2	3.765 ± 0.16
298.15 K, w2 = 0.5	991.4 ± 2	6.634 ± 0.27
298.15 K, w2 = 0.7	1001 ± 2	10.51 ± 0.44
298.15 K, w2 = 0.898	1009.4 ± 2	16.17 ± 0.69
303.15 K, w2 = 0	955.5 ± 2	1.386 ± 0.058
303.15 K, w2 = 0.1	962.8 ± 2	1.849 ± 0.077
303.15 K, w2 = 0.3	975.8 ± 2	3.269 ± 0.13
303.15 K, w2 = 0.5	987.1 ± 2	5.598 ± 0.23
303.15 K, w2 = 0.7	996.9 ± 2	8.619 ± 0.36
303.15 K, w2 = 0.898	1005.4 ± 2	12.97 ± 0.55
308.15 K, w2 = 0	950.9 ± 2	1.262 ± 0.053
308.15 K, w2 = 0.1	958.3 ± 2	1.664 ± 0.069
308.15 K, w2 = 0.3	971.5 ± 2	2.861 ± 0.12
308.15 K, w2 = 0.5	982.9 ± 2	4.773 ± 0.2
308.15 K, w2 = 0.7	992.8 ± 2	7.158 ± 0.3
308.15 K, w2 = 0.898	1001.4 ± 2	10.55 ± 0.44
313.15 K, w2 = 0	946.2 ± 2	1.155 ± 0.048
313.15 K, w2 = 0.1	953.7 ± 2	1.504 ± 0.062
313.15 K, w2 = 0.3	967.1 ± 2	2.521 ± 0.1
313.15 K, w2 = 0.5	978.6 ± 2	4.105 ± 0.17
313.15 K, w2 = 0.7	988.6 ± 2	6.011 ± 0.25
313.15 K, w2 = 0.898	997.3 ± 2	8.699 ± 0.37
318.15 K, w2 = 0	941.5 ± 2	1.061 ± 0.044
318.15 K, w2 = 0.1	949.1 ± 2	1.367 ± 0.056
318.15 K, w2 = 0.3	962.7 ± 2	2.235 ± 0.092
318.15 K, w2 = 0.5	974.3 ± 2	3.561 ± 0.15
318.15 K, w2 = 0.7	984.4 ± 2	5.098 ± 0.21
318.15 K, w2 = 0.898	993.3 ± 2	7.265 ± 0.31
323.15 K, w2 = 0	936.7 ± 2	0.9781 ± 0.041
323.15 K, w2 = 0.1	944.5 ± 2	1.246 ± 0.051
323.15 K, w2 = 0.3	958.2 ± 2	1.992 ± 0.082
323.15 K, w2 = 0.5	970 ± 2	3.112 ± 0.13
323.15 K, w2 = 0.7	980.3 ± 2	4.367 ± 0.18
323.15 K, w2 = 0.898	989.2 ± 2	6.134 ± 0.26
328.15 K, w2 = 0	932 ± 2	0.905 ± 0.037
328.15 K, w2 = 0.1	939.9 ± 2	1.141 ± 0.047
328.15 K, w2 = 0.3	953.8 ± 2	1.786 ± 0.073
328.15 K, w2 = 0.5	965.7 ± 2	2.741 ± 0.11
328.15 K, w2 = 0.7	976 ± 2	3.775 ± 0.16
328.15 K, w2 = 0.898	985.1 ± 2	5.229 ± 0.22
333.15 K, w2 = 0	927.2 ± 2	0.8397 ± 0.035
333.15 K, w2 = 0.1	935.2 ± 2	1.049 ± 0.043
333.15 K, w2 = 0.3	949.2 ± 2	1.609 ± 0.066
333.15 K, w2 = 0.5	961.3 ± 2	2.427 ± 0.1
333.15 K, w2 = 0.7	971.8 ± 2	3.288 ± 0.14
333.15 K, w2 = 0.898	981 ± 2	4.503 ± 0.19
338.15 K, w2 = 0	922.3 ± 2	0.7818 ± 0.032
338.15 K, w2 = 0.1	930.4 ± 2	0.967 ± 0.04
338.15 K, w2 = 0.3	944.7 ± 2	1.456 ± 0.06
338.15 K, w2 = 0.5	956.9 ± 2	2.161 ± 0.089
338.15 K, w2 = 0.7	967.5 ± 2	2.884 ± 0.12
338.15 K, w2 = 0.898	976.9 ± 2	3.91 ± 0.16
343.15 K, w2 = 0	917.4 ± 2	0.7298 ± 0.03
343.15 K, w2 = 0.1	925.7 ± 2	0.8945 ± 0.037
343.15 K, w2 = 0.3	940.1 ± 2	1.324 ± 0.054
343.15 K, w2 = 0.5	952.5 ± 2	1.936 ± 0.08
343.15 K, w2 = 0.7	963.3 ± 2	2.546 ± 0.1
343.15 K, w2 = 0.898	972.7 ± 2	3.42 ± 0.14
348.15 K, w2 = 0	912.4 ± 2	0.6834 ± 0.028
348.15 K, w2 = 0.1	920.8 ± 2	0.8302 ± 0.034
348.15 K, w2 = 0.3	935.5 ± 2	1.207 ± 0.049
348.15 K, w2 = 0.5	948 ± 2	1.741 ± 0.071
348.15 K, w2 = 0.7	958.9 ± 2	2.261 ± 0.093
348.15 K, w2 = 0.898	968.5 ± 2	3.011 ± 0.13
353.15 K, w2 = 0	907.4 ± 2	0.6409 ± 0.026
353.15 K, w2 = 0.1	916 ± 2	0.7712 ± 0.032
353.15 K, w2 = 0.3	930.8 ± 2	1.105 ± 0.045
353.15 K, w2 = 0.5	943.5 ± 2	1.568 ± 0.064
353.15 K, w2 = 0.7	954.6 ± 2	2.019 ± 0.083
353.15 K, w2 = 0.898	964.3 ± 2	2.67 ± 0.11
